The nature of data set [1]: rectal temperature in mice. Format: in vivo. The conditions noted are these: p.o. From the text:
(§1) The compounds of Examples 1, 4, 11 and 12 were subjected to behavioural tests in accordance with "predictability and specificity of behaviour screening tests for neuroleptics", P. Worms and K. G. Lloyd, […], Vol. 5, pages 445-450, 1979, comprising: […]

Data set [2] in a line: base screening: diuretic in male rats. Format: in vivo. Conditions: Rattus norvegicus, read-out: minimal effective dose producing a significant response, diuretic (c). From the text: (c) diuretic in male rats, as determined in accordance with W. L. Lipschitz, Z Hadidian and A. Kerpcsar, JPET, Vol. 79, pages 97-110, 1943
A short description of data set [3]: stereotype behaviour induced by apomorphine in rats. It is filed as in vivo. Conditions: p.o.
Description: as §1

A short description of data set [4]: base screening: anti-allergic in male and female rats. It is filed as in vivo. Conditions: for minimal effective dose: Rattus norvegicus, read-out: minimal effective dose producing a significant response, anti-allergic (d). From the text:
(d) anti-allergic in male and female rats, as determined in accordance with J. Goose and A. M. J. N. Blair, Immunol., Vol. 16, pages 749-760, 1969

The nature of data set [5]: base screening: bronchodilatory in vitro. From the text: (e) bronchodilatory in vitro as determined in accordance with F. P. Luduena et al., Arch. int. Pharmacodyn, Vol. 111, pages 392-400, 1957
Data set [6] in a line: analgesia induced by pentobarbital in mice. Format: in vivo. The conditions noted are these: p.o.
Description: as §1

A short description of data set [7]: catalepsy induced by haloperidol in rats. Format: in vivo. The conditions noted are these: p.o.
Description: as §1

Data set [8] can be described thus: hypomotility induced by amphetamine in rats. It is filed as in vivo. Conditions: p.o.
Description: as §1

Data set [9] in a line: climbing behaviour induced by apomorphine in mice. Format: in vivo. Conditions: p.o.
Description: as §1

The nature of data set [10]: base screening: anti-histamine in vitro. From the text: (f) anti-histamine in vitro as determined in accordance with R. Magnus, Arch f.d., ges. physiol., Vol. 102, pages 123-151, 1904.
The nature of data set [11]: behavioural study in rats: anxiety induced by a new environment (rearings and movements). It is filed as in vivo, male Sprague-Dawley rats. The conditions noted are these: for ED50: Rattus norvegicus, 0.5 h. From the text: The xanthines obtained in accordance with the preceding Examples were the subject of a behavioural study in rats as a function of the anxiety induced by a new environment. In rats, anxiety is manifested by rearing the animal on its two hind paws, whilst locomotive activity is expressed by their movements.
A state of anxiety is induced by confronting "naive" male Sprague-Dawley (Iffa-Credo, France) rats weighing from 260 to 300 g with a new environment in the form of cages of Macrolon (30×25 cm) which are situated in a sound-proofed air-conditioned room (22° C./50% relative humidity).
The number of rearings and movements is automatically determined by means of infrared photoelectric cells which only emit electrical pulses for the active movements of the animal and not for its static movements, such as those of its head and tail, for reasons of reproducibility. These photoelectric cells scan the cages at two different levels so as to distinguish the standing-up movements from the other movements. The number of rearings and movements is counted by the two rows of photoelectric cells, memorised and read out using a printer in accordance with a pre-established program.
The tested compound in solution in the form of its sodium salt is orally administered by oesophagus probe (the reference administration being formed by 6 ml/kg of distilled water) 30 minutes before the animals are placed in the cages. The number of rearings and movements is determined during the 15 minutes after they have been put into the cages in relation to the effect generated by the reference administration.
The ED 50 dose (expressed in mg/kg), i.e. the quantity of substance required to bring about a 50% variation in the motive activity in relation to the reference administration, is determined from the development of the effects of the tested substances on the number of movements and rearings as a function of the progressive doses administered expressed as a percentage of the movements and rearings counted for the reference administration.
The gradients of the regression curves corresponding to the movements and to the rearings are compared by recording the value of the gradient of the movement curve on the abscissa (d) and the value of the gradient of the rearing curve on the ordinant (r) of a system of rectungular axes.
The ratio of the gradient of the movements to that of the rearings is also determined, enabling the specificity of effect of a given substance on the anxiety state to be assessed.
The effect of a substance is determined by its position relative to the curve d=r of gradient=1. The substances situated on this curve have a similar effect on the rearings and movements, being sedatives with a non-specific effect (S.N.). For these compounds, the ED 50 value quoted corresponds to the mean taken from the two regression curves.
These compounds are sedatives of anxiolytic character (S.A.). In this case, the ED 50 value is calculated from the regression curve of the rearings.

Data set [12] can be described thus: in vivo. The conditions noted are these: rat, po, solution in DMSO. From the text: (b) Determination of the acute toxicity LD 50 in male and female rats in solution is DMSO (reference DMSO alone) in accordance with C.
Data set [13] can be described thus: in vivo. Conditions: mouse, po, solution in DMSO.
Where [14] appears, read: female, read-out: LD 50, rats female.
Setting [15] is: male, read-out: LD 50, rats male.
Where [16] appears, read: oral, sodium salt in solution, 30 min before test, 15 min count, S.N.: mean of two regression curves, S.A.: from rearings curve, read-out: ED 50.

Where two headings read alike, the source gives them in different places. Bounds are passed on as bounds.

With `C=CCn1c(=O)c2[nH]c(C)nc2n(CCCC)c1=O` [Example 1, 1-allyl-3-butyl-8-methyl xanthine], the rectal temperature entry in [1] is listed as “hypothermal effect at 2 mg/kg p.o”. In addition, the minimal effective dose in data set [2] was determined as 5 mg/kg; in [4], 2.5 mg/kg. In addition, the “stereotype behaviour induced by apomorphine” value (shortened to “stereotype behaviour induced”) in [3] is reported as “no antagonism up to 8 mg/kg p.o”. In addition, the “minimal effective concentration producing a significant response, bronchodilatory (e)” value in data set [5] was determined as 100 µg/mL. For the same molecule, the “analgesia induced by pentobarbital” value in [6] is “potentialisation at 0.5 mg/kg p.o”. Besides, in [7], the “catalepsy induced by haloperidol” value is “potentialisation at 1 mg/kg p.o”. In addition, the “hypomotility induced by amphetamine” value in data set [8] is listed as “antagonism at 0.5 mg/kg p.o”. The “climbing behaviour induced by apomorphine” value (“climbing behaviour induced” below) in [9] was “inhibition at 1 mg/kg p.o”. Besides, the “minimal effective concentration producing a significant response, anti-histamine (f)” value in data set [10] amounted to 100 µg/mL. Also, the ED50 in data set [11] (po) stood at 0.14 mg/kg.
As to `C=CCn1c(=O)c2[nH]cnc2n(CCCC)c1=O` [Example 2, 1-allyl-3-butyl xanthine], the minimal effective dose in [2] and in [4] was 10 mg/kg throughout. In addition, the “minimal effective concentration producing a significant response, bronchodilatory (e)” value in data set [5] was 25 µg/mL. Moreover, in data set [10], the “minimal effective concentration producing a significant response, anti-histamine (f)” value was determined as 100 µg/mL. In addition, the LD50 in “in vivo [12]” (setting [14]) and in the data set “in vivo [12]” (setting [15]) was more than 200 mg/kg each time. Also, in [11] (setting [16]), the ED50 amounted to 1.6 mg/kg.
As for `C=CCn1c(=O)c2[nH]cnc2n(CC(C)C)c1=O` [Example 3, 1-allyl-3-isobutyl xanthine], the minimal effective dose in data set [2] came to 5 mg/kg. In [4], the “minimal effective dose producing a significant response, anti-allergic (d)” value is “no effect”. Besides, in [5], the “minimal effective concentration producing a significant response, bronchodilatory (e)” value is on record as “no effect”. The “minimal effective concentration producing a significant response, anti-histamine (f)” value in data set [10] came to 200 µg/mL. Further, the ED50 in [11] (setting [16]) amounted to 0.98 mg/kg.
Take `C=CCn1c(=O)c2[nH]c(C)nc2n(CC(C)C)c1=O` [Example 4, 1-allyl-3-isobutyl-8-methyl xanthine]: in [1], the rectal temperature result is “hypothermal effect at 2 mg/kg p.o”. The LD50 in “in vivo [13]” (female, read-out: LD 50, mice female) stood at 49 mg/kg; in the data set “in vivo [13]” (male, read-out: LD 50, mice male) it was 79 mg/kg; in “in vivo [12]” (setting [14]) it was 17 mg/kg; in the data set “in vivo [12]” (setting [15]), 23 mg/kg. In addition, the minimal effective dose in data set [2] amounted to 20 mg/kg; in [4], 50 mg/kg. Moreover, the “stereotype behaviour induced” value in data set [3] is given as “no antagonism up to 8 mg/kg p.o”. Also, the “minimal effective concentration producing a significant response, bronchodilatory (e)” value in data set [5] is “no effect”. Further, in [6], the “analgesia induced by pentobarbital” value is listed as “potentialisation at 0.5 mg/kg p.o”. Besides, the “catalepsy induced by haloperidol” value in data set [7] was “potentialisation at 1 mg/kg p.o”. For the same molecule, the “hypomotility induced by amphetamine” value in data set [8] was “antagonism at 0.5 mg/kg p.o”. Further, in [9], the “climbing behaviour induced” value is recorded as “inhibition at 1 mg/kg p.o”. The “minimal effective concentration producing a significant response, anti-histamine (f)” value in data set [10] is “no effect”. For the same molecule, the ED50 in [11] (setting [16]) was 0.25 mg/kg. Also, in [11] (sedative/anxiolytic class), the Effect result was “S.N”.
Regarding `C=CCn1c(=O)c2[nH]c(CC)nc2n(CCCC)c1=O` [Example 5, 1-allyl-3-butyl-8-ethyl xanthine], the minimal effective dose in [2] is 2.5 mg/kg. In addition, the “minimal effective dose producing a significant response, anti-allergic (d)” value in [4] is recorded as “no effect”. Also, the “minimal effective concentration producing a significant response, bronchodilatory (e)” value in data set [5] came out at 5 µg/mL. Moreover, the “minimal effective concentration producing a significant response, anti-histamine (f)” value in [10] was determined as 100 µg/mL. Also, in [11] (setting [16]), the ED50 was 6.24 mg/kg.
On to `C=CCn1c(=O)c2[nH]c(C)nc2n(CCC)c1=O` [Example 6, 1-allyl-3-propyl-8-methyl xanthine], for which, in data set [11] (setting [16]), the ED50 was found to be 0.27 mg/kg.
Still for that read-out and setting: with `C=CCn1c(=O)c2[nH]c(C)nc2n(CCC(C)C)c1=O` [Example 7, 1-allyl-3-isopentyl-8-methyl xanthine] the figure was 1.03 mg/kg; with `CCCCn1c(=O)n(CC)c(=O)c2[nH]c(C)nc21` [Example 8, 1-ethyl-3-butyl-8-methyl xanthine], 1.02 mg/kg.
Turning to `CCCCn1c(=O)n(CC)c(=O)c2[nH]c(CC)nc21` [Example 9, 1,8-diethyl-3-butyl xanthine], in [2], the minimal effective dose was found to be 5 mg/kg. In addition, in data set [4], the “minimal effective dose producing a significant response, anti-allergic (d)” value is “no effect”. Also, the “minimal effective concentration producing a significant response, bronchodilatory (e)” value in data set [5] is 25 µg/mL. For the same molecule, the “minimal effective concentration producing a significant response, anti-histamine (f)” value in [10] is 50 µg/mL. Moreover, the ED50 in [11] (setting [16]) was 2.38 mg/kg.
For the molecule `C=CCn1c(=O)n(CCCC)c(=O)c2[nH]c(C)nc21` [Example 10, 1-butyl-3-allyl-8-methyl xanthine], the ED50 in [11] (setting [16]) came to 3.95 mg/kg.
For `CCCn1c(=O)c2[nH]c(C)nc2n(CC(C)C)c1=O` [Example 12, 1-propyl-3-isobutyl-8-methyl xanthine], in [1], the rectal temperature result is “hypothermal effect at 2 mg/kg p.o”. Further, the “stereotype behaviour induced” value in [3] was “no antagonism up to 8 mg/kg p.o”. Besides, in [6], the “analgesia induced by pentobarbital” value is on record as “potentialisation at 0.5 mg/kg p.o”. In addition, the “catalepsy induced by haloperidol” value in data set [7] is recorded as “potentialisation at 1 mg/kg p.o”. Moreover, the “hypomotility induced by amphetamine” value in data set [8] is “antagonism at 0.5 mg/kg p.o”. Besides, the “climbing behaviour induced” value in data set [9] is “inhibition at 1 mg/kg p.o”. Also, the LD50 in “in vivo [12]” (setting [14]) was 19 mg/kg; in the data set “in vivo [12]” (setting [15]), 28 mg/kg. For the same molecule, the ED50 in data set [11] (setting [16]) is 0.25 mg/kg.
In the case of `CCCCn1c(=O)c2[nH]c(C)nc2n(CCC)c1=O` [Example 13, 1-butyl-3-propyl-8-methyl xanthine], the ED50 in data set [11] (setting [16]) was determined as 1.05 mg/kg.
`CCCn1c(=O)c2[nH]c(C)nc2n(CCC)c1=O` [Example 14, 1,3-dipropyl-8-methyl xanthine]: the ED50 in [11] (setting [16]) stood at 0.37 mg/kg.
The same measure, in the same setting: with `Cc1nc2c([nH]1)c(=O)n(CC(C)C)c(=O)n2CC(C)C` [Example 15, 1,3-diisobutyl-8-methyl xanthine] the figure was 0.42 mg/kg; with `CCCCn1c(=O)n(C(C)C)c(=O)c2[nH]c(C)nc21` [Example 16, 1-isopropyl-3-butyl-8-methyl xanthine], 1.76 mg/kg.
For the molecule `CNC1=Nc2ccc(Cl)cc2C(c2ccccc2)=[N+]([O-])C1` [chlordiazepoxide, reference compound], the ED50 in data set [11] (po) was found to be 12 mg/kg.
On the same count and under the same terms, the same measure for `CN(C)CCCN1c2ccccc2Sc2ccc(Cl)cc21` [chlorpromazine, reference compound]: 21 mg/kg; for `O=C(CCCN1CCC(O)(c2ccc(Cl)cc2)CC1)c1ccc(F)cc1` [haloperidol, reference compound]: 1 mg/kg.
Regarding `Cn1c(=O)c2[nH]cnc2n(C)c1=O` [theophylline, reference compound], in data set [11] (conclusion from Table 3), the action profile result is listed as “psychostimulating” and the “effect on the anxiety state” value is “does not have any effect on the anxiety state”.

The minimal effective dose is the lowest level tested that produced the effect sought.

The values above are taken from patent US4581451A, “Preparation of di- and tri-substituted xanthine compounds” (priority 1980, dated 1986).
